According to patent US8604019B2, “Compounds for the treatment and prophylaxis of respiratory syncytial virus disease” (Hoffman-La Roche Inc., priority 2011, dated 2013):

System: RSV Long strain (ATCC, catalog number: VR-26)
Assay: Viral cytopathic effect (CPE) assay, anti-RSV activity
Type: cell-based
Details: human respiratory syncytial virus, 144 h, 6 days, cell viability by Cell Counting kit-8
Protocol: Viral cytopathic effect (CPE) assay: To measure anti-RSV activity of compounds, 96-well plates are seeded with 6×10^3 cells per well in Dulbecco's modified Eagle's medium (DMEM) containing 10% fetal bovine serum (FBS). Cells are infected the next day with sufficient RSV Long strain (ATCC, catalog number: VR-26) to produce an approximately 80-90% cytopathic effect after 6 days, in the presence of serial half-log diluted compound in a total volume of 200 μL per well. The viability of cells is assessed after 6 days using Cell Counting kit-8 (Dojindo Molecular Technologies). The absorbance at 450 nm and referenced at 630 nm is measured to determine 50% effective concentration (EC50).

Compound | EC50 [µM]
Cc1cc2nc(N3CCS(=O)(=O)c4ccccc4C3)nc(NCCCN)c2s1 [Example 1-14, N-[2-(1,1-Dioxido-2,3-dihydro-1,4-benzothiazepin-4(5H)-yl)-6-methylthieno[3,2-d]pyrimidin-4-yl]propane-1,3-diamine] | 0.073
NC1(CNc2nc(N3CC[S@+]([O-])c4ccccc4C3)nc3ccsc23)COC1 [Example 2-4, N-[(3-aminooxetan-3-yl)methyl]-2-[(1S)-1-oxido-2,3-dihydro-1,4-benzothiazepin-4(5H)-yl]thieno[3,2-d]pyrimidin-4-amine] | 0.003
NCCCNc1nc(N2CCS(=O)(=O)c3ccccc3C2)nc2ccsc12 [Example 1-15, N-[2-(1,1-Dioxido-2,3-dihydro-1,4-benzothiazepin-4(5H)-yl)thieno[3,2-d]pyrimidin-4-yl]propane-1,3-diamine] | 0.076
Cc1cc2nc(N3CCOc4ccccc4C3)nc(NCCCN)c2s1 [Example 1-11, N-[2-(2,3-Dihydro-1,4-benzoxazepin-4(5H)-yl)-6-methylthieno[3,2-d]pyrimidin-4-yl]propane-1,3-diamine] | 1.35
NCCCNc1nc(N2CCNc3ccccc3C2)nc2ccsc12 [Example 1-4, N-[2-(1,2,3,5-Tetrahydro-4H-1,4-benzodiazepin-4-yl)thieno[3,2-d]pyrimidin-4-yl]propane-1,3-diamine] | 9.47
NCCCNc1nc(N2CCC(F)(F)c3ccccc3C2)nc2ccsc12 [Example 1-7, N-[2-(5,5-Difluoro-1,3,4,5-tetrahydro-2H-2-benzazepin-2-yl)thieno[3,2-d]pyrimidin-4-yl]propane-1,3-diamine] | 0.669
Cc1cc2nc(N3CCSc4ccccc4C3)nc(NCCCN)c2s1 [Example 1-10, N-[2-(2,3-Dihydro-1,4-benzothiazepin-4(5H)-yl)-6-methylthieno[3,2-d]pyrimidin-4-yl]propane-1,3-diamine] | 0.735
Cc1cc2nc(N3CC[S+]([O-])c4ccccc4C3)nc(NCCN)c2s1 (centres unmarked) [Example 3-3, N-[6-Methyl-2-(1-oxido-2,3-dihydro-1,4-benzothiazepin-4(5H)-yl)thieno[3,2-d]pyrimidin-4-yl]ethane-1,2-diamine] | 0.086
Cc1cc2nc(N3CC[S+]([O-])c4ccccc4C3)nc(NCC3(N)COC3)c2s1 (centres unmarked) [Example 3-1, N-[(3-Aminooxetan-3-yl)methyl]-6-methyl-2-(1-oxido-2,3-dihydro-1,4-benzothiazepin-4(5H)-yl)thieno[3,2-d]pyrimidin-4-amine] | 0.026
Cc1cc2nc(N3CCCc4ccccc4C3)nc(NCCCN)c2s1 [Example 1-13, N-[6-Methyl-2-(1,3,4,5-tetrahydro-2H-2-benzazepin-2-yl)thieno[3,2-d]pyrimidin-4-yl]propane-1,3-diamine] | 1.44
NCC1(Nc2nc(N3CCS(=O)(=O)c4ccccc4C3)nc3ccsc23)COC1 [Example 2-2, N-[3-(aminomethyl)oxetan-3-yl]-2-(1,1-dioxido-2,3-dihydro-1,4-benzothiazepin-4(5H)-yl)thieno[3,2-d]pyrimidin-4-amine] | 0.897
NCCCNc1nc(N2CCCc3ccccc3C2)nc2ccsc12 [Example 1-9, N-[2-(1,3,4,5-Tetrahydro-2H-2-benzazepin-2-yl)thieno[3,2-d]pyrimidin-4-yl]propane-1,3-diamine] | 0.667
Cc1cc2nc(N3CC[S+]([O-])c4ccccc4C3)nc(NC3CCNC3)c2s1 (centres unmarked) [Example 4-2, 6-Methyl-2-(1-oxido-2,3-dihydro-1,4-benzothiazepin-4(5H)-yl)-N-(pyrrolidin-3-yl)thieno[3,2-d]pyrimidin-4-amine] | 0.676
NCC(F)(F)CNc1nc(N2CCS(=O)(=O)c3ccccc3C2)nc2ccsc12 [Example 1-1, N-[2-(1,1-Dioxido-2,3-dihydro-1,4-benzothiazepin-4(5H)-yl)thieno[3,2-d]pyrimidin-4-yl]-2,2-difluoropropane-1,3-diamine] | 0.215
Cc1cc2nc(N3CC[S+]([O-])c4ccccc4C3)nc(NCC3(CN)COC3)c2s1 (centres unmarked) [Example 3-4, N-{[3-(Aminomethyl)oxetan-3-yl]methyl}-6-methyl-2-(1-oxido-2,3-dihydro-1,4-benzothiazepin-4(5H)-yl)thieno[3,2-d]pyrimidin-4-amine] | 0.006
NCCCNc1nc(N2CCOc3ccccc3C2)nc2ccsc12 [Example 1-6, N-[2-(2,3-Dihydro-1,4-benzoxazepin-4(5H)-yl)thieno[3,2-d]pyrimidin-4-yl]propane-1,3-diamine] | 2.21
NC1(CNc2nc(N3CC[S@@+]([O-])c4ccccc4C3)nc3ccsc23)COC1 [Example 2-3, N-[(3-Aminooxetan-3-yl)methyl]-2-[(1R)-1-oxido-2,3-dihydro-1,4-benzothiazepin-4(5H)-yl]thieno[3,2-d]pyrimidin-4-amine] | 0.068
NCC1(CNc2nc(N3CCC(F)(F)c4ccccc4C3)nc3ccsc23)COC1 [Example 1-8, N-{[3-(Aminomethyl)oxetan-3-yl]methyl}-2-(5,5-difluoro-1,3,4,5-tetrahydro-2H-2-benzazepin-2-yl)thieno[3,2-d]pyrimidin-4-amine] | 0.022
NC1(CNc2nc(N3CCS(=O)(=O)c4ccccc4C3)nc3ccsc23)COC1 [Example 2-1, N-[(3-Aminooxetan-3-yl)methyl]-2-(1,1-dioxido-2,3-dihydro-1,4-benzothiazepin-4(5H)-yl)thieno[3,2-d]pyrimidin-4-amine] | 0.007
Cc1cc2nc(N3CCNc4ccccc4C3)nc(NCCCN)c2s1 [Example 1-3, N-[6-Methyl-2-(1,2,3,5-tetrahydro-4H-1,4-benzodiazepin-4-yl)thieno[3,2-d]pyrimidin-4-yl]propane-1,3-diamine] | 3.12
Cc1cc2nc(N3CC[S+]([O-])c4ccccc4C3)nc(NCCCN)c2s1 (centres unmarked) [Example 3-5, N-[6-Methyl-2-(1-oxido-2,3-dihydro-1,4-benzothiazepin-4(5H)-yl)thieno[3,2-d]pyrimidin-4-yl]propane-1,3-diamine] | 0.232
Cc1cc2nc(N3CC[S+]([O-])c4ccccc4C3)nc(NCC(F)CN)c2s1 (centres unmarked) [Example 3-2, 2-Fluoro-N-[6-methyl-2-(1-oxido-2,3-dihydro-1,4-benzothiazepin-4(5H)-yl)thieno[3,2-d]pyrimidin-4-yl]propane-1,3-diamine] | 0.468
NCCCNc1nc(N2CCSc3ccccc3C2)nc2ccsc12 [Example 1-5, N-[2-(2,3-Dihydro-1,4-benzothiazepin-4(5H)-yl)thieno[3,2-d]pyrimidin-4-yl]propane-1,3-diamine] | 0.384
Cc1cc2nc(N3CCC(F)(F)c4ccccc4C3)nc(NCCCN)c2s1 [Example 1-12, N-[2-(5,5-Difluoro-1,3,4,5-tetrahydro-2H-2-benzazepin-2-yl)-6-methylthieno[3,2-d]pyrimidin-4-yl]propane-1,3-diamine] | 1.01
NCCCNc1nc(N2CC[S+]([O-])c3ccccc3C2)nc2ccsc12 (centres unmarked) [Example 1-2, N-[2-(1-Oxido-2,3-dihydro-1,4-benzothiazepin-4(5H)-yl)thieno[3,2-d]pyrimidin-4-yl]propane-1,3-diamine] | 0.255
Cc1cc2nc(N3CC[S+]([O-])c4ccccc4C3)nc(NC3CNC[C@H]3F)c2s1 (mixture of isomers) [Example 4-1, N—[trans-(±)-4-Fluoropyrrolidin-3-yl]-6-methyl-2-(1-oxido-2,3-dihydro-1,4-benzothiazepin-4(5H)-yl)thieno[3,2-d]pyrimidin-4-amine] | 0.03

System: RSV infection
Assay: not given
Details: intramuscularly at 15 mg/kg once a month for the duration of RSV season, selected infants; cited from earlier work

Compound | reduction of hospitalization rate caused by RSV infection
palivizumab: a humanized monoclonal antibody against RSV fusion (F) protein approved for prophylaxis in high-risk infants | 45-55%

System: established RSV infection
Assay: not given
Details: in vivo; cited from earlier work

Compound | efficacy in treatment of established RSV infection
palivizumab: a humanized monoclonal antibody against RSV fusion (F) protein approved for prophylaxis in high-risk infants | not effective

System: RSV
Assay: not given
Details: Phase III clinical trials; cited from earlier work

Compound | benefit over palivizumab
motavizumab: A newer version monoclonal antibody designed as potential replacement of palivizumab | failed to show additional benefit over palivizumab
